Drawing on ChEMBL document CHEMBL1909046, “DrugMatrix in vitro pharmacology data”, this text covers IC50 for six molecules.

Sequence of Estrogen receptor beta (Q92731 whole entry): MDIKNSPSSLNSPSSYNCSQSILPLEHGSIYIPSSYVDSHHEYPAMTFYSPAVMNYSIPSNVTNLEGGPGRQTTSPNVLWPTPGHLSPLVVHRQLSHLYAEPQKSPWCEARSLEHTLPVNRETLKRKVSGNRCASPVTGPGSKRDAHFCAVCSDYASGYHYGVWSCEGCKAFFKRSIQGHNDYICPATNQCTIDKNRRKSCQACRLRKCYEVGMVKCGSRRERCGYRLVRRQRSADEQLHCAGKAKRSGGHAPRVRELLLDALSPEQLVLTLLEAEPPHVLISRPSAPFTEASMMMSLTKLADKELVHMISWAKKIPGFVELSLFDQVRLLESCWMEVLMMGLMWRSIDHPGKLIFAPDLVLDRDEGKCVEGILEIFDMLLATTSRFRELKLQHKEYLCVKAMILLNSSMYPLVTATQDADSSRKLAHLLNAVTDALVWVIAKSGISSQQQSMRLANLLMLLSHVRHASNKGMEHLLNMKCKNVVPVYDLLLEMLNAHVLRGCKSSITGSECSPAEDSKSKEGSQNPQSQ
Sequence of Insulin receptor (P15127 27-759 limits assumed): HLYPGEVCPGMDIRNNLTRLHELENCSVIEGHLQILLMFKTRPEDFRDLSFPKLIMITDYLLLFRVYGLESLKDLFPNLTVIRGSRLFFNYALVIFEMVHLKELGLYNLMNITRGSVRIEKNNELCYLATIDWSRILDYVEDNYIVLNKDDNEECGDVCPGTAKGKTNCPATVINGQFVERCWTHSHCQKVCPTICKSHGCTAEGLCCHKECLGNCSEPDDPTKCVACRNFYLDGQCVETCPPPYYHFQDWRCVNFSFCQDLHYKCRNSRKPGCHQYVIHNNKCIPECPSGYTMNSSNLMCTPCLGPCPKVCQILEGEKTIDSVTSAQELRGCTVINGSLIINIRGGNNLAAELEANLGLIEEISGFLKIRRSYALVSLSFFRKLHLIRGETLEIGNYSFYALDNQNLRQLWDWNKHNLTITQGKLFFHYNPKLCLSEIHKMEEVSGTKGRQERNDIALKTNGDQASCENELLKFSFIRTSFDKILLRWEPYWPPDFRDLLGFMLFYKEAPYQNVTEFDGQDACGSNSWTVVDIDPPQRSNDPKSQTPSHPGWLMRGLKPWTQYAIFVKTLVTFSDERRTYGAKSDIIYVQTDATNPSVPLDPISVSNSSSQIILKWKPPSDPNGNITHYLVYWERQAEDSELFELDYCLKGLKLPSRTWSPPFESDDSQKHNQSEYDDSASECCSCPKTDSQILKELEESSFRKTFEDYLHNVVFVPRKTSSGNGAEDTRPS
Sequence of Insulin receptor (P15127 764-1383 limits assumed): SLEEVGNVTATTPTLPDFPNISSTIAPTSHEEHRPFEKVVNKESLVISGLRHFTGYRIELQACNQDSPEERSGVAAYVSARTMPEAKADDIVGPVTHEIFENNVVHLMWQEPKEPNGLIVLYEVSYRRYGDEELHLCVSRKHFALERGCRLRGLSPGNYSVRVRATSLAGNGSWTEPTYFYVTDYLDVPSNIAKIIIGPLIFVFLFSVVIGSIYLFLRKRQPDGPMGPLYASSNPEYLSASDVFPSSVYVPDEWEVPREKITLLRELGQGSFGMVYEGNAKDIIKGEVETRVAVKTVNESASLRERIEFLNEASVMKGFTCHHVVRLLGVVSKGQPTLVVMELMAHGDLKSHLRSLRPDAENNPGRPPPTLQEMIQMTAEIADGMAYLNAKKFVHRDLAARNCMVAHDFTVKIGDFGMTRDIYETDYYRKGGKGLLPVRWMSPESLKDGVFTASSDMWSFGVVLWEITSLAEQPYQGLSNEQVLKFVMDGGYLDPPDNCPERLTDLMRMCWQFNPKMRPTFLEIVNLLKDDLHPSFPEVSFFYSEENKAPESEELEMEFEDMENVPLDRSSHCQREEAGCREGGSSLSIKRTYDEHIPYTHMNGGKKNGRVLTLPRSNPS
Sequence of Tyrosine-protein kinase Lck (P06239 whole entry): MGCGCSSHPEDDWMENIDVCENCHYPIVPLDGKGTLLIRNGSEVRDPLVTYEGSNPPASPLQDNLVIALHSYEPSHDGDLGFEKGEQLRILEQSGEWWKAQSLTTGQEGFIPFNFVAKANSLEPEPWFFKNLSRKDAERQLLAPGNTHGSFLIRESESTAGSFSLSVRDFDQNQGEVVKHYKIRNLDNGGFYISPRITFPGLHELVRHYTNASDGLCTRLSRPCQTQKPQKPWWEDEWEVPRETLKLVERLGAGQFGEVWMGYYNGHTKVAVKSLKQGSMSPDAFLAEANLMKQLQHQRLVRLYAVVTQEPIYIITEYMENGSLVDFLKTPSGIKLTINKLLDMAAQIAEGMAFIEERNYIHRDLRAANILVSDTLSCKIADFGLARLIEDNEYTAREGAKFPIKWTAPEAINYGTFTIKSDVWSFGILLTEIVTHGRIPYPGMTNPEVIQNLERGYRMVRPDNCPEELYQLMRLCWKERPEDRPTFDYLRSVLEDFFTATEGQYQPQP

One test deals with T1, B2 bradykinin receptor (Homo sapiens, UniProt P30411).
T1 sequence (P30411 whole entry): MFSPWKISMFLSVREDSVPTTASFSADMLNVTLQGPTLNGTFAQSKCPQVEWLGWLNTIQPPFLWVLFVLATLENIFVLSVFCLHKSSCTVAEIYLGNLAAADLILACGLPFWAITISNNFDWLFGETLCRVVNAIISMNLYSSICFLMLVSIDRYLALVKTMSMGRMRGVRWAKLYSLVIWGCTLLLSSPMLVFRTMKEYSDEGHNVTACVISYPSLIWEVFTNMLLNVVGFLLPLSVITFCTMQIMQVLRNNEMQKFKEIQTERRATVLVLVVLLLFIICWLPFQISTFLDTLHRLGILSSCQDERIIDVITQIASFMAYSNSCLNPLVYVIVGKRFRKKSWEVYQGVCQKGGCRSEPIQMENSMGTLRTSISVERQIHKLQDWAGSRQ
The test is classed as cell membranes, Membrane. As to conditions: chem-1.
`CC(=O)[C@@]1(O)CC[C@H]2[C@@H]3C[C@H](C)C4=CC(=O)CC[C@]4(C)[C@H]3CC[C@@]21C`: the IC50 entry is on record as “Not Active”.
For `CC(C)N1CCN(c2ccc(OCC3COC(Cn4cncn4)(c4ccc(Cl)cc4Cl)O3)cc2)CC1` (stereo not drawn) [TERCONAZOLE], the IC50 entry is on record as “Not Active”.
Same read-out and setting: the entry for `Nc1nc2nc[nH]c2c(=S)[nH]1` [THIOGUANINE] is “Not Active”; for `COc1nc(C)nc(Cl)c1NC1=NCCN1` [MOXONIDINE] it is “Not Active”.
As for `C[C@@H]1CN(c2c(F)c(N)c3c(=O)c(C(=O)O)cn(C4CC4)c3c2F)C[C@H](C)N1` [SPARFLOXACIN], the IC50 result is “Not Active”.
For `N[C@@H](Cc1ccc(O)c(O)c1)C(=O)O` [LEVODOPA], the IC50 entry was “Not Active”.

Another test addresses Insulin receptor (Rattus norvegicus, UniProt P15127). Format: cell membranes, Wistar, Liver, Membrane.
Conditions: not given
For `CC(=O)[C@@]1(O)CC[C@H]2[C@@H]3C[C@H](C)C4=CC(=O)CC[C@]4(C)[C@H]3CC[C@@]21C`, the IC50 result is recorded as “Not Active”.
On to `CC(C)N1CCN(c2ccc(OCC3COC(Cn4cncn4)(c4ccc(Cl)cc4Cl)O3)cc2)CC1` (stereo not drawn) [TERCONAZOLE], for which the IC50 entry is given as “Not Active”.
For `Nc1nc2nc[nH]c2c(=S)[nH]1` [THIOGUANINE], the IC50 entry is “Not Active”.
The same measure, in the same setting: the entry for `COc1nc(C)nc(Cl)c1NC1=NCCN1` [MOXONIDINE] is “Not Active”; for `C[C@@H]1CN(c2c(F)c(N)c3c(=O)c(C(=O)O)cn(C4CC4)c3c2F)C[C@H](C)N1` [SPARFLOXACIN] it is “Not Active”.
In the case of `N[C@@H](Cc1ccc(O)c(O)c1)C(=O)O` [LEVODOPA], the IC50 result is reported as “Not Active”.

The target of a further test is T2, Neuropeptide Y receptor type 1 (Homo sapiens, UniProt P25929). Note: in other assays of this panel Not Active means under 50% inhibition at 10 µM.
T2 sequence (P25929 whole entry): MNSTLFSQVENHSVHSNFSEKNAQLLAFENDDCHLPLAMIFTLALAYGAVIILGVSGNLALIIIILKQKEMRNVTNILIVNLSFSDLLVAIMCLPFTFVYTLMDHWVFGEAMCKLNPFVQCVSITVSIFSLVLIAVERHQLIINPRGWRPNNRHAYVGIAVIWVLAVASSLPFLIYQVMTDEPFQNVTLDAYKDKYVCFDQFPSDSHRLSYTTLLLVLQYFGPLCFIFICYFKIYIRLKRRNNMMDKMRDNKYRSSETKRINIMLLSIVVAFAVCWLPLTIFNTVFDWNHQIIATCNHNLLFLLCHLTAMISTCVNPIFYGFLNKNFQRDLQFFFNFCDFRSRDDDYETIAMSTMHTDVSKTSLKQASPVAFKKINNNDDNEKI
The test is classed as cell membranes, Membrane. As to conditions: sk-n-mc.
For `CC(=O)[C@@]1(O)CC[C@H]2[C@@H]3C[C@H](C)C4=CC(=O)CC[C@]4(C)[C@H]3CC[C@@]21C`, the IC50 entry was “Not Active”.
The same measure, in the same setting: to `CC(C)N1CCN(c2ccc(OCC3COC(Cn4cncn4)(c4ccc(Cl)cc4Cl)O3)cc2)CC1` (stereo not drawn) [TERCONAZOLE] belongs “Not Active”; to `Nc1nc2nc[nH]c2c(=S)[nH]1` [THIOGUANINE], “Not Active”; to `COc1nc(C)nc(Cl)c1NC1=NCCN1` [MOXONIDINE], “Not Active”.
Turning to `C[C@@H]1CN(c2c(F)c(N)c3c(=O)c(C(=O)O)cn(C4CC4)c3c2F)C[C@H](C)N1` [SPARFLOXACIN], the half-maximal inhibitory concentration (IC50) result was “Not Active”.
Regarding `N[C@@H](Cc1ccc(O)c(O)c1)C(=O)O` [LEVODOPA], the IC50 result was “Not Active”.

For a further test, the target named is T3, Nitric oxide synthase, inducible (Mus musculus, UniProt P29477).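 Note: inhibition of iNOS enzyme activity measured with L-arginine as substrate; in other assays of this panel Not Active means under 50% inhibition at 10 µM.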
T3 sequence (P29477 whole entry): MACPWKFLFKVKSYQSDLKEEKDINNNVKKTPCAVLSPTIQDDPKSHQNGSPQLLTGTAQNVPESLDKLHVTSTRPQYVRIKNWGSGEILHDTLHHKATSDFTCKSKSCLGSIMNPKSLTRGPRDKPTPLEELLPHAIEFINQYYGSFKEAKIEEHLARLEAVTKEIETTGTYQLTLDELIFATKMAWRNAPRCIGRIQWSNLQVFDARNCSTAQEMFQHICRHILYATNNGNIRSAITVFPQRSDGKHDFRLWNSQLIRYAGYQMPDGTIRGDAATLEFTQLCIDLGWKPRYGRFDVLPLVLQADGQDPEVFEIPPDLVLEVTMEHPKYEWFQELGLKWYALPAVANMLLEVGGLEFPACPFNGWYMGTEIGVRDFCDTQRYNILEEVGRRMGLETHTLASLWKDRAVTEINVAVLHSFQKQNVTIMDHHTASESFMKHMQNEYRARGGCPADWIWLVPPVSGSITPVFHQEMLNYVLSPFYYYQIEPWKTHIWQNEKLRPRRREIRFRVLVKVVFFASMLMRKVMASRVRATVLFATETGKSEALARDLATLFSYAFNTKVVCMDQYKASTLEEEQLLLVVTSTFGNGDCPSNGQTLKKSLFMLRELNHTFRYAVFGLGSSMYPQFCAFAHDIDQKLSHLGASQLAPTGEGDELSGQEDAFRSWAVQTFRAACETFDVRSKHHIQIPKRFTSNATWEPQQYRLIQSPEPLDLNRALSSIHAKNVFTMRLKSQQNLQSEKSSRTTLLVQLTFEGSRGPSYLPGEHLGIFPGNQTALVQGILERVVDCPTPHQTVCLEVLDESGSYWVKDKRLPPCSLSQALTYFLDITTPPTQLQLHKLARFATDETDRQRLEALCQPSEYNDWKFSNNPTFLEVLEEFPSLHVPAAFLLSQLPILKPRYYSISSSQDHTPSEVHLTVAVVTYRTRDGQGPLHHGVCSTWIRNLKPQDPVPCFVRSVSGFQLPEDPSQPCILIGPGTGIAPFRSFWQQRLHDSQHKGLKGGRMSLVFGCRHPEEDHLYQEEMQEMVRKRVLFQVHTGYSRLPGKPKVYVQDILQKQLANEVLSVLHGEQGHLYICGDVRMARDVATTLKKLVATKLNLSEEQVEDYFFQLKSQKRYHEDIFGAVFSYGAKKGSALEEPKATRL
On the set-up: species or system Escherichia coli.
Conditions: not given
In the case of `CC(=O)[C@@]1(O)CC[C@H]2[C@@H]3C[C@H](C)C4=CC(=O)CC[C@]4(C)[C@H]3CC[C@@]21C`, the IC50 entry was “Not Active”.
On the same count and under the same terms, to `CC(C)N1CCN(c2ccc(OCC3COC(Cn4cncn4)(c4ccc(Cl)cc4Cl)O3)cc2)CC1` (stereo not drawn) [TERCONAZOLE] belongs “Not Active”; to `Nc1nc2nc[nH]c2c(=S)[nH]1` [THIOGUANINE], “Not Active”.
For the molecule `COc1nc(C)nc(Cl)c1NC1=NCCN1` [MOXONIDINE], the half-inhibitory concentration (IC50) entry is listed as “Not Active”.
On the same count and under the same terms, the entry for `C[C@@H]1CN(c2c(F)c(N)c3c(=O)c(C(=O)O)cn(C4CC4)c3c2F)C[C@H](C)N1` [SPARFLOXACIN] is “Not Active”; for `N[C@@H](Cc1ccc(O)c(O)c1)C(=O)O` [LEVODOPA] it is “Not Active”.

For the next test, the target named is Mitogen-activated protein kinase 1 (Homo sapiens, UniProt P28482). The test is described as follows: DRUGMATRIX: Protein Serine/Threonine Kinase, ERK2 enzyme inhibition (substrate: Myelin Basic Protein). On the set-up: species or system Escherichia coli. The note with it: Not Active = under 50% inhibition at 10 µM.
Sequence of Mitogen-activated protein kinase 1 (P28482 whole entry): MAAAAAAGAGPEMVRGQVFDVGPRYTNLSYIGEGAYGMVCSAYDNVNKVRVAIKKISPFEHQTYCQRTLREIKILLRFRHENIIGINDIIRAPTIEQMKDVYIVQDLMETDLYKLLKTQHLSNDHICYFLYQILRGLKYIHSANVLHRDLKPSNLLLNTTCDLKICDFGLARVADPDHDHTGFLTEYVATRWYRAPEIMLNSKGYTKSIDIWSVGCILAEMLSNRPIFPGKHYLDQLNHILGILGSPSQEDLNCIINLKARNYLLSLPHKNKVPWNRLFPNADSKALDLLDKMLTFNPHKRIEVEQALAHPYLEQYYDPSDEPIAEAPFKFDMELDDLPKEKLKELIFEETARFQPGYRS
In the case of `CC(=O)[C@@]1(O)CC[C@H]2[C@@H]3C[C@H](C)C4=CC(=O)CC[C@]4(C)[C@H]3CC[C@@]21C`, the IC50 entry was “Not Active”.
Same read-out and setting: to `CC(C)N1CCN(c2ccc(OCC3COC(Cn4cncn4)(c4ccc(Cl)cc4Cl)O3)cc2)CC1` (stereo not drawn) [TERCONAZOLE] belongs “Not Active”; to `Nc1nc2nc[nH]c2c(=S)[nH]1` [THIOGUANINE], “Not Active”; to `COc1nc(C)nc(Cl)c1NC1=NCCN1` [MOXONIDINE], “Not Active”.
Take `C[C@@H]1CN(c2c(F)c(N)c3c(=O)c(C(=O)O)cn(C4CC4)c3c2F)C[C@H](C)N1` [SPARFLOXACIN]: the IC50 entry is “Not Active”.
Same read-out and setting: the entry for `N[C@@H](Cc1ccc(O)c(O)c1)C(=O)O` [LEVODOPA] is “Not Active”.

The next test deals with Protein phosphatase 3 catalytic subunit alpha (Homo sapiens, UniProt Q08209). On the set-up: species or system Escherichia coli.
Conditions: not given
In the case of `CC(=O)[C@@]1(O)CC[C@H]2[C@@H]3C[C@H](C)C4=CC(=O)CC[C@]4(C)[C@H]3CC[C@@]21C`, the IC50 entry is given as “Not Active”.
Same read-out and setting: to `CC(C)N1CCN(c2ccc(OCC3COC(Cn4cncn4)(c4ccc(Cl)cc4Cl)O3)cc2)CC1` (stereo not drawn) [TERCONAZOLE] belongs “Not Active”.
For the molecule `Nc1nc2nc[nH]c2c(=S)[nH]1` [THIOGUANINE], the IC50 result is “Not Active”.
Take `COc1nc(C)nc(Cl)c1NC1=NCCN1` [MOXONIDINE]: the IC50 result is “Not Active”.
As to `C[C@@H]1CN(c2c(F)c(N)c3c(=O)c(C(=O)O)cn(C4CC4)c3c2F)C[C@H](C)N1` [SPARFLOXACIN], the IC50 result was “Not Active”.
Same read-out and setting: the entry for `N[C@@H](Cc1ccc(O)c(O)c1)C(=O)O` [LEVODOPA] is “Not Active”.

A further test has as its target Tyrosine-protein kinase Lck (Homo sapiens, UniProt P06239). The experiment in a line: DRUGMATRIX: Protein Tyrosine Kinase, LCK enzyme inhibition (substrate: Poly(Glu:Tyr)). Format: cell-based, Insect cells. The note with it: Not Active = under 50% inhibition at 10 µM; read-out: IC50.
In the case of `N[C@@H](Cc1ccc(O)c(O)c1)C(=O)O` [LEVODOPA], the IC50 came to 3.73 µM.

The test is the same for the next values; noted with them: insect cells; Not Active = under 50% inhibition at 10 µM.
As to `CC(=O)[C@@]1(O)CC[C@H]2[C@@H]3C[C@H](C)C4=CC(=O)CC[C@]4(C)[C@H]3CC[C@@]21C`, the 50% inhibitory concentration (IC50) entry was “Not Active”.
For the molecule `CC(C)N1CCN(c2ccc(OCC3COC(Cn4cncn4)(c4ccc(Cl)cc4Cl)O3)cc2)CC1` (stereo not drawn) [TERCONAZOLE], the IC50 entry is listed as “Not Active”.
In the case of `Nc1nc2nc[nH]c2c(=S)[nH]1` [THIOGUANINE], the IC50 entry was “Not Active”.
Take `COc1nc(C)nc(Cl)c1NC1=NCCN1` [MOXONIDINE]: the IC50 result was “Not Active”.
`C[C@@H]1CN(c2c(F)c(N)c3c(=O)c(C(=O)O)cn(C4CC4)c3c2F)C[C@H](C)N1` [SPARFLOXACIN]: the IC50 result is reported as “Not Active”.

A further test concerns the target Estrogen receptor beta (Homo sapiens, UniProt Q92731). The note with it: sf9. Note: in other assays of this panel Not Active means under 50% inhibition at 10 µM.
For `CC(=O)[C@@]1(O)CC[C@H]2[C@@H]3C[C@H](C)C4=CC(=O)CC[C@]4(C)[C@H]3CC[C@@]21C`, the IC50 entry is on record as “Not Active”.
On the same count and under the same terms, to `CC(C)N1CCN(c2ccc(OCC3COC(Cn4cncn4)(c4ccc(Cl)cc4Cl)O3)cc2)CC1` (stereo not drawn) [TERCONAZOLE] belongs “Not Active”; to `Nc1nc2nc[nH]c2c(=S)[nH]1` [THIOGUANINE], “Not Active”.
As to `COc1nc(C)nc(Cl)c1NC1=NCCN1` [MOXONIDINE], the IC50 result is on record as “Not Active”.
Take `C[C@@H]1CN(c2c(F)c(N)c3c(=O)c(C(=O)O)cn(C4CC4)c3c2F)C[C@H](C)N1` [SPARFLOXACIN]: the IC50 entry is on record as “Not Active”.
Consider `N[C@@H](Cc1ccc(O)c(O)c1)C(=O)O` [LEVODOPA], for which the IC50 result was “Not Active”.
